# Values of other authors, collected in publication PMC12491383, “Organ and tumour dosimetry of ^177Lu-rhPSMA-10.1, a novel PSMA-targeted therapy: results from a Phase I trial” (European Journal of Nuclear Medicine and Molecular Imaging, 2025).
# How the values were obtained:
# [1] = parameters: method as in PMID 38050121; conditions: cited from earlier work
# [2] = parameters: method as in PMID 34887335; conditions: reported data; cited from earlier work
smiles,measurement,setting,value
"O=C([O-])CN1CCN(CC(=O)[O-])CCN(CC(=O)NCC2CCC(C(=O)N[C@@H](Cc3ccc4ccccc4c3)C(=O)NCCCC[C@H](NC(=O)N[C@@H](CCC(=O)O)C(=O)O)C(=O)O)CC2)CCN(CC(=O)[O-])CC1.[177Lu+3] (stereo partly shown) [^177Lu-PSMA-617, lutetium Lu 177 vipivotide tetraxetan]",Absorbed dose to the bone marrow,[1]; VISION dosimetry substudy,0.035 Gy/GBq
same,Absorbed dose in the salivary glands,[1]; VISION substudy,0.63 Gy/GBq
same,Absorbed dose in the kidneys,[1]; dosimetry substudy of the Phase III VISION trial,0.43 Gy/GBq
same,Tumour effective half-life,[2],61 h
